Laboratory results taken from ChEMBL document CHEMBL1136589, “Antineoplastic agents 390. Isolation and structure of phakellistatin 12 from a Chuuk archipelago marine sponge” (2003).
Values after ≈ are worked out from the molar mass of the structure shown. Where a SMILES comes first, the peptide text is derived from it.

System: P388
Test: Inhibitory activity against P388 lymphocytic leukemia cells
Assay type: functional
Settings: Mus musculus, read-out: ED50 (the source's name)

EC50: 2.8 µg/mL (≈ 2.46 µM)
SMILES: CC[C@H](C)[C@@H]1NC(=O)[C@@H]2CCCN2C(=O)[C@@H]2CCCN2C(=O)[C@H]([C@@H](C)CC)NC(=O)[C@H](Cc2ccc(O)cc2)NC(=O)[C@@H]2CCCN2C(=O)[C@@H]2CCCN2C(=O)[C@H](CC(C)C)NC(=O)[C@H]([C@@H](C)O)NC(=O)[C@H](Cc2ccccc2)NC1=O [PHAKELLISTATIN 12] (cyclo(FTLPPYIPPI))
